The source made the active and inactive calls.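 The calls were made as follows: active = CC50 at or below 10 µM in either panel, but not in both panels; inactive = the rest.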
Test: HEK293T cell cytotoxicity, dose response, cytotoxicity control for LYPLA1/LYPLA2 inhibitor project, WST-1 absorbance, serum-free and serum medium (AID 651991)
Details: HEK293T viability, 48 h

| Structure (SMILES) | CC50 (with 10% FCS) | CC50 (without serum) |
| --- | --- | --- |
| O=C(c1cc2c(s1)-c1ccccc1S(=O)(=O)C2)N1CCN(c2ccc(Cl)cc2)CC1 | > 50 µM (inactive) | > 50 µM (inactive) |
| O=C(CN1CCN(C(=O)c2ccco2)CC1)Nc1cc(C(F)(F)F)ccc1Cl | > 50 µM (inactive) | > 50 µM (inactive) |
| O=C(CN1CCN(C(=O)c2ccco2)CC1)Nc1cc(Cl)ccc1Cl | > 50 µM (inactive) | > 50 µM (inactive) |
| COc1ccc(N2CCN(C(=O)c3cc4c(s3)-c3ccccc3S(=O)(=O)C4)CC2)cc1 | > 50 µM (inactive) | > 50 µM (inactive) |

Reference: PubChem BioAssay AID651991 (The Scripps Research Institute Molecular Screening Center, 2013)
